Measured values published in patent US20230192705A1, “SHP2 INHIBITORS, COMPOSITIONS AND USES THEREOF” (Betta Pharmaceuticals Co., Ltd, priority 2020, published 2023).

Target: T1, SHP2 (Homo sapiens, UniProt Q06124)
T1 sequence (Q06124 1-593): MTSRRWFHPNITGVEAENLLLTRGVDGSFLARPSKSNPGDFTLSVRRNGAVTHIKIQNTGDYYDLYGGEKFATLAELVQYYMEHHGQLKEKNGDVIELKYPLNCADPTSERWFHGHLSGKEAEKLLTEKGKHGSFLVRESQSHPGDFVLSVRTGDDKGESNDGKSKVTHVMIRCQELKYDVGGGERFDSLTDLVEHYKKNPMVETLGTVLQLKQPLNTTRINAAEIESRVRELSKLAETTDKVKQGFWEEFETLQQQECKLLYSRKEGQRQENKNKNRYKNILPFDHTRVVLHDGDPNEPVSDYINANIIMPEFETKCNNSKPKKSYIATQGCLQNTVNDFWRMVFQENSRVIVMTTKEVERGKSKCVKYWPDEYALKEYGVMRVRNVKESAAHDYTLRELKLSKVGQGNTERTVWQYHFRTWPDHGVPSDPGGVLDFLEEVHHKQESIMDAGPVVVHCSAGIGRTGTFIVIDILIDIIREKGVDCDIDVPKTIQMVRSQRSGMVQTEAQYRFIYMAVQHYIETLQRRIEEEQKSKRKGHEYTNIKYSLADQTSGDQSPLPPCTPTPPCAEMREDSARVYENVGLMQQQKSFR
Assay: SHP2 allosteric inhibitor enzyme activity assay (DiFMUP fluorescence)
Type: biochemical
Summary of the method: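 SHP2 activated by 0.5 μM IRS1_pY1172(dPEG8)pY1222 peptide, 0.2 ng enzyme per well, 1 h at room temperature with compound (1 μM top, 3-fold series), then DiFMUP substrate 1 h. Buffer: 60 mM HEPES, 75 mM NaCl, 75 mM KCl, 0.05% BRIJ-35, 1 mM EDTA, 5 mM DTT. Fluorescence ex 340/em 450 nm; IC50 by variable-slope fit.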

Structure (SMILES)	IC50 (class symbols) [nM]	IC50 (numeric values) [nM]
N[C@@H]1c2ccccc2CC12CCN(c1nc3[nH]nc(C4(c5ccccc5)CCOCC4)c3c(=O)[nH]1)CC2 [Example 100, (S)-6-(1-amino-1,3-dihydrospiro[indene-2,4′-piperidin]-1′-yl)-3-(4-phenyltetrahydro-2H-pyran-4-yl)-1,5-dihydro-4H-pyrazolo[3,4-d]pyrimidin-4-one]	20 to 60	–
COc1ccccc1C1(c2n[nH]c3nc(N4CCC5(CC4)Cc4ccccc4[C@H]5N)[nH]c(=O)c23)CC12CCCC2 (stereo partly drawn) [Example 101, 6-((S)-1-amino-1,3-dihydrospiro[indene-2,4′-piperidin]-1′-yl)-3-(1-(2-methoxyphenyl)spiro[2.4]heptan-1-yl)-1,5-dihydro-4H-pyrazolo[3,4-d]pyrimidin-4-one]	20 to 60	–
N[C@@H]1c2ccccc2CC12CCN(c1nc3[nH]nc([C@H]4C[C@H]4c4ccccc4)c3c(=O)[nH]1)CC2 [Example 105, 6-((S)-1-amino-1,3-dihydrospiro[indene-2,4′-piperidin]-1′-yl)-3-((1S,2R)-2-phenylcyclopropyl)-1,5-dihydro-4H-pyrazolo[3,4-d]pyrimidin-4-one]	≤ 20	–
N[C@@H]1c2ccccc2CC12CCN(c1cnc3c([C@H]4C[C@H]4c4ccccc4)n[nH]c3n1)CC2 [Example 106, (S)-1′-(3-((1S,2R)-2-phenylcyclopropyl)-1H-pyrazolo[3,4-b]pyrazin-6-yl)-1,3-dihydrospiro[indene-2,4′-piperidin]-1-amine]	≤ 20	–
N[C@@H]1c2ccccc2CC12CCN(c1nc3[nH]nc([C@H]4C[C@H]4c4ccccc4)c3c3nncn13)CC2 [Example 107, (S)-1′-(9-((1S,2R)-2-phenylcyclopropyl)-7H-pyrazolo[4,3-e][1,2,4]triazolo[4,3-c]pyrimidin-5-yl)-1,3-dihydrospiro[indene-2,4′-piperidin]-1-amine]	20 to 60	–
N[C@@H]1c2ccccc2CC12CCN(c1nc3[nH]nc(C4CCCc5ncccc54)c3c(=O)[nH]1)CC2 (stereo partly drawn) [Example 108, 6-((S)-1-amino-1,3-dihydrospiro[indene-2,4′-piperidin]-1′-yl)-3-(5,6,7,8-tetrahydroquinolin-5-yl)-1,5-dihydro-4H-pyrazolo[3,4-d]pyrimidin-4-one]	–	1.9
CC1(C)CC(c2n[nH]c3nc(N4CCC5(CC4)Cc4ccccc4[C@H]5N)[nH]c(=O)c23)c2cccc(F)c21 (stereo partly drawn) [Example 109, 6-((S)-1-amino-1,3-dihydrospiro[indene-2,4′-piperidin]-1′-yl)-3-(4-fluoro-3,3-dimethyl-2,3-dihydro-1H-inden-1-yl)-1,5-dihydro-4H-pyrazolo[3,4-d]pyrimidin-4-one]	≤ 20	–
N[C@@H]1c2ccccc2CC12CCN(c1nc3[nH]nc(C4CCCCc5ccccc54)c3c(=O)[nH]1)CC2 (stereo partly drawn) [Example 110, 6-((S)-1-amino-1,3-dihydrospiro[indene-2,4′-piperidin]-1′-yl)-3-(6,7,8,9-tetrahydro-5H-benzo[7]annulen-5-yl)-1,5-dihydro-4H-pyrazolo[3,4-d]pyrimidin-4-one]	≤ 20	–
N[C@@H]1c2ccccc2CC12CCN(c1nc3[nH]nc(C4=CCCc5ccccc54)c3c(=O)[nH]1)CC2 [Example 111, (S)-6-(1-amino-1,3-dihydrospiro[indene-2,4′-piperidin]-1′-yl)-3-(3,4-dihydronaphthalen-1-yl)-1,5-dihydro-4H-pyrazolo[3,4-d]pyrimidin-4-one]	≤ 20	–
N[C@@H]1c2ccccc2CC12CCN(c1nc3[nH]nc(C4=CCCc5ncccc54)c3c(=O)[nH]1)CC2 [Example 112, (S)-6-(1-amino-1,3-dihydrospiro[indene-2,4′-piperidin]-1′-yl)-3-(7,8-dihydroquinolin-5-yl)-1,5-dihydro-4H-pyrazolo[3,4-d]pyrimidin-4-one]	≤ 20	–
Cn1c2c(c3ccccc31)C(c1n[nH]c3nc(N4CCC5(CC4)Cc4ccccc4[C@H]5N)[nH]c(=O)c13)=CCC2 [Example 113, (S)-6-(1-amino-1,3-dihydrospiro[indene-2,4′-piperidin]-1′-yl)-3-(9-methyl-2,9-dihydro-1H-carbazol-4-yl)-1,5-dihydro-4H-pyrazolo[3,4-d]pyrimidin-4-one]	≤ 20	–
N[C@@H]1c2ccccc2CC12CCN(c1nc3[nH]nc(C4=CCOc5ncccc54)c3c(=O)[nH]1)CC2 [Example 116, (S)-6-(1-amino-1,3-dihydrospiro[indene-2,4′-piperidin]-1′-yl)-3-(2H-pyrano[2,3-b]pyridin-4-yl)-1,5-dihydro-4H-pyrazolo[3,4-d]pyrimidin-4-one]	≤ 20	–
N[C@@H]1c2ccccc2CC12CCN(c1nc3[nH]nc(C4=CCCc5sccc54)c3c(=O)[nH]1)CC2 [Example 117, (S)-6-(1-amino-1,3-dihydrospiro[indene-2,4′-piperidin]-1′-yl)-3-(6,7-dihydrobenzo[b]thiophen-4-yl)-1,5-dihydro-4H-pyrazolo[3,4-d]pyrimidin-4-one]	≤ 20	–
CCCCCc1cc2c(s1)CCC=C2c1n[nH]c2nc(N3CCC4(CC3)Cc3ccccc3[C@H]4N)[nH]c(=O)c12 [Example 118, (S)-6-(1-amino-1,3-dihydrospiro[indene-2,4′-piperidin]-1′-yl)-3-(2-pentyl-6,7-dihydrobenzo[b]thiophen-4-yl)-1,5-dihydro-4H-pyrazolo[3,4-d]pyrimidin-4-one]	20 to 60	–
N[C@@H]1c2ccccc2CC12CCN(c1nc3[nH]nc(C4=CCCc5occc54)c3c(=O)[nH]1)CC2 [Example 119, (S)-6-(1-amino-1,3-dihydrospiro[indene-2,4′-piperidin]-1′-yl)-3-(6,7-dihydrobenzofuran-4-yl)-1,5-dihydro-4H-pyrazolo[3,4-d]pyrimidin-4-one]	≤ 20	–
Cn1ccc2c1CCC=C2c1n[nH]c2nc(N3CCC4(CC3)Cc3ccccc3[C@H]4N)[nH]c(=O)c12 [Example 120, (S)-6-(1-amino-1,3-dihydrospiro[indene-2,4′-piperidin]-1′-yl)-3-(1-methyl-6,7-dihydro-1H-indol-4-yl)-1,5-dihydro-4H-pyrazolo[3,4-d]pyrimidin-4-one]	≤ 20	–
Cn1cc2c(n1)CCC=C2c1n[nH]c2nc(N3CCC4(CC3)Cc3ccccc3[C@H]4N)[nH]c(=O)c12 [Example 121, (S)-6-(1-amino-1,3-dihydrospiro[indene-2,4′-piperidin]-1′-yl)-3-(2-methyl-6,7-dihydro-2H-indazol-4-yl)-1,5-dihydro-4H-pyrazolo[3,4-d]pyrimidin-4-one]	≤ 20	–
N[C@@H]1c2ccccc2CC12CCN(c1nc3[nH]nc(C4=CCC(F)(F)c5ccccc54)c3c(=O)[nH]1)CC2 [Example 123, (S)-6-(1-amino-1,3-dihydrospiro[indene-2,4′-piperidin]-1′-yl)-3-(4,4-difluoro-3,4-dihydronaphtlialen-1-yl)-1,5-dihydro-4H-pyrazolo[3,4-d]pyrimidin-4-one]	≤ 20	–
N#Cc1ccc2c(c1)C(c1n[nH]c3nc(N4CCC5(CC4)Cc4ccccc4C5N)[nH]c(=O)c13)=CCC2(F)F (stereo not drawn) [Example 126]	≤ 20	–
CC1(C)CC=C(c2n[nH]c3nc(N4CCC5(CC4)Cc4ccccc4C5N)[nH]c(=O)c23)c2cccnc21 (stereo not drawn) [Example 127, 6-(1-amino-1,3-dihydrospiro[indene-2,4′-piperidin]-1′-yl)-3-(8,8-dimethyl-7,8-dihydroquinolin-5-yl)-1,5-dihydro-4H-pyrazolo[3,4-d]pyrimidin-4-one]	≤ 20	–
NC1c2ccccc2CC12CCN(c1nc3[nH]nc(C4=CCCn5ccnc54)c3c(=O)[nH]1)CC2 (stereo not drawn) [Example 128]	≤ 20	–
